Source: publication PMC6272327, “Discovery of Metal Ions Chelator Quercetin Derivatives with Potent Anti-HCV Activities” (Molecules, 2015)
Read-outs that look alike come from different tables or passages of the source.

Key:
[1] = Cell viability / cytotoxicity by MTT method; type: cell-based; details: human
Description: (§1) The inhibition of HCV by all synthesized quercetin derivatives was evaluated following a previously reported procedure. All newly synthesized compounds were tested in authentic HCV infection/replication system in the human hepatoma cell lines Huh7.5.1 using mycophenolic acid (MPA) as control compound. The cytotoxicity effect of the test compounds was also evaluated in the same cell line by MTT method. Antiviral effect and cytotoxicity effect were summarized as EC50 and CC50 respectively, as well as the selective index (SI) which is the ratio of CC50 to EC50. The stability of quercetin-3-O-ester compounds were also tested in the same buffer as the antiviral activity assay at 37 °C and the hydrolysate was measured by HPLC.
After the EGFP signal was read, cell viability was measured in the same plate by the MTT [3-(4,5-dimethylthiazol-2-yl)-2,5-diphenyltetrazolium bromide; Sigma-Aldrich, St. Louis, MO, USA] method. Briefly, MTT (1 mg/mL) was dissolved in PBS. Cell culture supernatants were removed and replaced with MTT and further cultured for 4 h; cells were then lysed with 10% sodium dodecyl sulfate (SDS), 50% N,N-dimethylformamide, pH 7.2. OD570 values were read. The percentage of cell death was calculated against the control well without compounds.

[2] = system: HCV infectious virus J399EM; test: Anti-HCV assay in authentic HCV infection/replication system (J399EM EGFP reporter virus) in Huh7.5.1 cells; type: cell-based, hepatitis C virus (JFH1-derived, genotype 2a); details: for EC50: Hepatitis C virus, Huh-7.5.1, 72 h; for SI (selectivity index): ratio of CC50 to EC50, Huh7.5.1 cells
Description: as §1
The biological assays were performed following a previously reported procedure. The Huh7.5.1 cell line and the HCV infectious virus J399EM were kindly provided by Xin-Wen Chen, Wuhan Institute of Virology, Chinese Academy of Sciences. Huh7.5.1 cells were cultured in Dulbecco’s modified Eagle’s medium (DMEM) containing 10% (v/v) fetal bovine serum, 0.5 mg/mL G418, 100 IU/mL penicillin, and […].
J399EM is an infectious HCV virus derived from the JFH1 virus (genotype 2a) by insertion of enhanced green fluorescent protein (EGFP) into the HCV NS5A region. The establishment of the infectious J399EM HCV virus has been described previously. J399EM was propagated in Huh7.5.1 cells. Briefly, Huh7.5.1 cells were infected with J399EM at MOI = 0.1 and cultured for 4 days. Culture supernatant was collected and filtered through a 0.45 μm membrane and stored at −80 °C as virus stock. Virus titer was tested in Huh7.5.1 cells. Stocks were serially diluted, and the foci forming units (FFU) were determined as the number of fluorescent colonies formed in infected Huh7.5.1.
All the compounds were first dissolved in DMSO at 50 mM, and then diluted to various concentrations (50 μM, 25 μM, 12.5 μM, 6.3 μM and 3.1 μM). Approximately 1 × 10^4 Huh7.5.1 cells per well were plated in an opaque 96-well tissue culture plate (Costar 3904). The next day, the medium was replaced by J399EM virus at an MOI of 0.3. Four hours later, the virus inoculum was removed and medium containing different concentrations of compounds was added. After an additional 72 h of incubation, the culture medium was removed and the EGFP autofluorescence was measured by using a […] with excitation at 488 nm and emission at 516 nm. Compounds and controls were performed in duplicate and each experiment repeated independently at least twice.

Compound | CC50 [1] [µM] | melting point [°C] | EC50 [2] [µM] | SI (selectivity index) [2] | CC50 ([1]; Huh7.5.1 cells, MTT, concentration required to reduce cell proliferation by 50%, average of duplicate determinations, read-out: CC50) [µM]
Nc1cccc(C(=O)Oc2c(-c3ccc(O)c(O)c3)oc3cc(O)cc(O)c3c2=O)c1 [Compound 4g, 2-(3,4-Dihydroxyphenyl)-5,7-dihydroxy-4-oxo-4H-chromen-3-yl 3-aminobenzoate] | > 50 | 216 to 217 | 21.1 ± 1.3 | >2.4 | –
Nc1ccc(C(=O)Oc2c(-c3ccc(O)c(O)c3)oc3cc(O)cc(O)c3c2=O)cc1 [Compound 4l, 2-(3,4-Dihydroxyphenyl)-5,7-dihydroxy-4-oxo-4H-chromen-3-yl 4-aminobenzoate] | > 50 | 233 to 234 | 23.8 ± 0.8 | >2.1 | –
N#CCCCOc1c(-c2ccc(O)c(O)c2)oc2cc(O)cc(O)c2c1=O [Compound 12d, 4-(2-(3,4-Dihydroxyphenyl)-5,7-dihydroxy-4-oxo-4H-chromen-3-yloxy)butanenitrile] | > 50 | 169 to 171 | > 50 | – | –
O=c1c(O)c(-c2ccc(O)c(O)c2)oc2cc(OCc3ccc(Br)cc3)cc(O)c12 [Compound 3p, 7-((4-Bromobenzyl)oxy)-2-(3,4-dihydroxyphenyl)-3,5-dihydroxy-4H-chromen-4-one] | 35.4 ± 1.6 | 256 to 257 | 5.5 ± 1.5 | 6.4 | –
O=C(Oc1c(-c2ccc(O)c(O)c2)oc2cc(O)cc(O)c2c1=O)c1ccc(Cl)cc1 [Compound 4o, 2-(3,4-Dihydroxyphenyl)-5,7-dihydroxy-4-oxo-4H-chromen-3-yl 4-chlorobenzoate] | > 50 | 194 to 195 | 14.3 ± 2.2 | >3.5 | –
O=c1c(O)c(-c2ccc(O)c(O)c2)oc2cc(OCc3cccc(F)c3)cc(O)c12 [Compound 3h, 2-(3,4-Dihydroxyphenyl)-7-((3-fluorobenzyl)oxy)-3,5-dihydroxy-4H-chromen-4-one] | 44.5 ± 3.7 | 243 to 245 | 6.3 ± 0.2 | – | –
O=c1c(O)c(-c2ccc(O)c(O)c2)oc2cc(OCc3cccc([N+](=O)[O-])c3)cc(O)c12 [Compound 3m, 2-(3,4-Dihydroxyphenyl)-3,5-dihydroxy-7-((3-nitrobenzyl)oxy)-4H-chromen-4-one] | 15 ± 0.1 | 264 to 266 | 6.6 ± 1.1 | 2.3 | –
O=c1c(O)c(-c2ccc(O)c(O)c2)oc2cc(OCc3cccc(Br)c3)cc(O)c12 [Compound 3j, 7-((3-Bromobenzyl)oxy)-2-(3,4-dihydroxyphenyl)-3,5-dihydroxy-4H-chromen-4-one] | 22.3 ± 1.2 | 234 to 236 | 4.1 ± 0.3 | 5.4 | –
COc1cccc(C(=O)Oc2c(-c3ccc(O)c(O)c3)oc3cc(O)cc(O)c3c2=O)c1 [Compound 4h, 2-(3,4-Dihydroxyphenyl)-5,7-dihydroxy-4-oxo-4H-chromen-3-yl 3-methoxybenzoate] | > 50 | 173 to 174 | 15.6 ± 0.3 | >3.2 | –
O=c1c(O)c(-c2ccc(O)c(O)c2)oc2cc(OCc3ccccc3Br)cc(O)c12 [Compound 3d, 7-((2-Bromobenzyl)oxy)-2-(3,4-dihydroxyphenyl)-3,5-dihydroxy-4H-chromen-4-one] | 37.4 ± 0.8 | 248 to 249 | 5.5 ± 0.2 | 6.8 | –
COc1ccc(C(=O)Oc2c(-c3ccc(O)c(O)c3)oc3cc(O)cc(O)c3c2=O)cc1 [Compound 4m, 2-(3,4-Dihydroxyphenyl)-5,7-dihydroxy-4-oxo-4H-chromen-3-yl 4-methoxybenzoate] | 33.9 ± 3.7 | 194 to 195 | 13.6 ± 2.1 | 2.5 | –
N#Cc1ccc(COc2cc(O)c3c(=O)c(O)c(-c4ccc(O)c(O)c4)oc3c2)cc1 [Compound 3r, 4-(((2-(3,4-Dihydroxyphenyl)-3,5-dihydroxy-4-oxo-4H-chromen-7-yl)oxy)methyl)benzonitrile] | 10.1 ± 0.1 | 252 to 254 | 6.2 ± 0.2 | 1.6 | –
O=c1c(O)c(-c2ccc(O)c(O)c2)oc2cc(OCc3cccc(Cl)c3)cc(O)c12 [Compound 3i, 7-((3-Chlorobenzyl)oxy)-2-(3,4-dihydroxyphenyl)-3,5-dihydroxy-4H-chromen-4-one] | 27.2 ± 0.2 | 260 to 261 | 3.8 ± 0.2 | 7.2 | –
Cc1ccccc1COc1cc(O)c2c(=O)c(O)c(-c3ccc(O)c(O)c3)oc2c1 [Compound 3e, 2-(3,4-Dihydroxyphenyl)-3,5-dihydroxy-7-((2-methylbenzyl)oxy)-4H-chromen-4-one] | 21.7 ± 1.4 | 241 to 242 | 4.9 ± 0.6 | 4.4 | –
O=c1c(O)c(-c2ccc(O)c(O)c2)oc2cc(OCc3ccccc3Cl)cc(O)c12 [Compound 3c, 7-((2-Chlorobenzyl)oxy)-2-(3,4-dihydroxyphenyl)-3,5-dihydroxy-4H-chromen-4-one] | 36.7 ± 0.7 | 253 to 254 | 4.8 ± 0.1 | 7.7 | –
O=c1c(O)c(-c2ccc(O)c(O)c2)oc2cc(OCc3ccc(Cl)cc3)cc(O)c12 [Compound 3o, 7-((4-Chlorobenzyl)oxy)-2-(3,4-dihydroxyphenyl)-3,5-dihydroxy-4H-chromen-4-one] | 15.1 ± 0.1 | 266 to 267 | 3.9 ± 0.3 | 3.9 | –
O=C(Oc1c(-c2ccc(O)c(O)c2)oc2cc(O)cc(O)c2c1=O)c1ccccc1F [Compound 4b, 2-(3,4-Dihydroxyphenyl)-5,7-dihydroxy-4-oxo-4H-chromen-3-yl 2-fluorobenzoate] | > 50 | 186 to 187 | 12.9 ± 3.2 | >3.9 | –
O=c1c(O)c(-c2ccc(O)c(O)c2)oc2cc(OCc3ccc(F)cc3)cc(O)c12 [Compound 3n, 2-(3,4-Dihydroxyphenyl)-7-((4-fluorobenzyl)oxy)-3,5-dihydroxy-4H-chromen-4-one] | 31.9 ± 3.4 | 254 to 255 | 5.1 ± 0.5 | 6.2 | –
N#Cc1ccccc1C(=O)Oc1c(-c2ccc(O)c(O)c2)oc2cc(O)cc(O)c2c1=O [Compound 4e, 2-(3,4-Dihydroxyphenyl)-5,7-dihydroxy-4-oxo-4H-chromen-3-yl 2-cyanobenzoate] | > 50 | 196 to 197 | 20.2 ± 8.6 | >2.5 | –
O=c1c(OCCO)c(-c2ccc(O)c(O)c2)oc2cc(O)cc(O)c12 [Compound 12c, 2-(3,4-Dihydroxyphenyl)-5,7-dihydroxy-3-(2-hydroxyethoxy)-4H-chromen-4-one] | > 50 | – | 26.3 ± 3.1 | >1.9 | –
N#Cc1cccc(COc2cc(O)c3c(=O)c(O)c(-c4ccc(O)c(O)c4)oc3c2)c1 [Compound 3l, 3-(((2-(3,4-Dihydroxyphenyl)-3,5-dihydroxy-4-oxo-4H-chromen-7-yl)oxy)methyl)benzonitrile] | – | – | 5.4 ± 0.5 | 2.0 | 10.6 ± 0.5
COc1c(-c2ccc(O)c(O)c2)oc2cc(O)cc(O)c2c1=O [Compound 12a, 2-(3,4-Dihydroxyphenyl)-5,7-dihydroxy-3-methoxy-4H-chromen-4-one] | > 50 | – | 11.2 ± 0.1 | >4.5 | –
